# Reference: ChEMBL document CHEMBL1201862, “PubChem BioAssay data set” (2004)
# Activity calls are given as the source filed them.
# Tests used:
# [1] = biological target: T1, Alkaline phosphatase, tissue-nonspecific isozyme (Homo sapiens, UniProt P05186)
# T1 sequence (P05186 whole entry): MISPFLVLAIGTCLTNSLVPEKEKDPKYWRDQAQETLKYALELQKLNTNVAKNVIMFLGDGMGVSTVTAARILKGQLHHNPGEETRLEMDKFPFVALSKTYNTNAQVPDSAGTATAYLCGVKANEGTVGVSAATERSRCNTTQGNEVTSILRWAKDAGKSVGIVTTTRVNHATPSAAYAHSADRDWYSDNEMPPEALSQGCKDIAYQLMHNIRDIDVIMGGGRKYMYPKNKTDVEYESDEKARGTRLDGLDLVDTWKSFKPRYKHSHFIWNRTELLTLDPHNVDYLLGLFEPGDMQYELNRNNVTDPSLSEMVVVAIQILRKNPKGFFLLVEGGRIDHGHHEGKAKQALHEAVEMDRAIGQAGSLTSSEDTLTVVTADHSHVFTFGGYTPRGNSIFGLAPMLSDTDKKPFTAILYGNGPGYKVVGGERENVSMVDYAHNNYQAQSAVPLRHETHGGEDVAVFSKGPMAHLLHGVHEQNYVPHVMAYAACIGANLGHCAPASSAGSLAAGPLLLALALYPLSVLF
# [2] = biological target: Cytochrome P450 2D6 (Homo sapiens, UniProt P10635); assay: qHTS Assay for Inhibitors and Substrates of Cytochrome P450 2D6. [Related pubchem assays: 410 ]; type: ADME; settings: read-out: Potency
# [3] = biological target: Cytochrome P450 3A4 (Homo sapiens, UniProt P08684); settings: Potency;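 further: confirmatory qHTS run detecting inhibitors and substrates of CYP3A4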
# [4] = system: HEK293; assay: Cytotoxicity assay in HEK293 cells. [Related pubchem assays (depositor defined):AID1266, AID1269, AID1270, AID1271, AID1280, AID1281, AID1282, AID1283, AID1287, AID1289, AID1290, AID1291, AID1292, AID1293, AID1294, AID1295, AID1299, AID1302, AID1364, AID1365, AID1366, AID1367, AID1369, AID1370, AID1371, AID1372, AID1373, AID1374, AID1375, AID1384 …; type: functional, cell-based; settings: Homo sapiens
# [5] = biological target: Luciferin 4-monooxygenase (Photinus pyralis, UniProt P08659); assay: In vitro luciferase assay using purified luciferase. [Related pubchem assays: 1299, 1270, 1295, 1375, 1287, 1281, 1293, 1291, 1289, 1280, 465, 1364, 1282, 1372, 1365, 1370, 1367, 1366, 1266, 1373, 1292, 1290, 1302, 1371, 1283, 1271, 1294, 1374, 1368, 1369 ]
# [6] = system: HEK293; assay: PMA/Ionomycin induced NF-kB luciferase assay in 293- NF-kB-Luc stable cells. [Related pubchem assays: 1299, 1270, 1295, 1375, 1287, 1281, 1293, 1291, 1289, 1280, 465, 1364, 1282, 1372, 1365, 1370, 1367, 1366, 1269, 1373, 1292, 1290, 1302, 1371, 1283, 1271, 1294, 1374, 1368, 1369 ]; type: functional, cell-based; settings: Homo sapiens
# [7] = biological target: T2, Estrogen receptor (Homo sapiens, UniProt P03372); assay: potentiators of ERα–SRC-1 coactivator binding, dose response, biochemical, TR-FRET, ERα LBD (AID 737)
# T2 sequence (P03372 whole entry): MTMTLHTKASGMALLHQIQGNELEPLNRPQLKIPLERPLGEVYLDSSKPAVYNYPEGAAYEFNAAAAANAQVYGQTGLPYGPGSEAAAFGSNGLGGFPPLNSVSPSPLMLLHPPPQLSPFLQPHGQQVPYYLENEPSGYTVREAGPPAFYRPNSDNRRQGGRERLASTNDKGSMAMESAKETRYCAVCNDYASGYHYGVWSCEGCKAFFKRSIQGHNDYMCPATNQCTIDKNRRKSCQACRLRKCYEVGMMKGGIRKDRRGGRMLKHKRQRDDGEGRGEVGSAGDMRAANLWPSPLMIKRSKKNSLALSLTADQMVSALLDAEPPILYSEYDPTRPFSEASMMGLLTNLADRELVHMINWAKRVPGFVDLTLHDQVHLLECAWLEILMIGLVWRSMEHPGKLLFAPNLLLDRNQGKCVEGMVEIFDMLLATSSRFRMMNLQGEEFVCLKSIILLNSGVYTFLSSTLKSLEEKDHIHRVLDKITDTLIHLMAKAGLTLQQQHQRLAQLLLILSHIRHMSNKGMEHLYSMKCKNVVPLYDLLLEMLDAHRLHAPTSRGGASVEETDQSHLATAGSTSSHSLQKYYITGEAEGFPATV
# [8] = biological target: Peroxisome proliferator-activated receptor gamma/Nuclear receptor coactivator 1 (Homo sapiens, UniProt P37231); type: functional;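 further: agonist potency as compounds enhance coactivator SRC-1 recruitment to PPARgamma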
# [9] = biological target: Peroxisome proliferator-activated receptor gamma/Nuclear receptor coactivator 2 (Homo sapiens, UniProt P37231); type: functional;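 further: agonist potency for raising coactivator recruitment to the receptor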
# [10] = biological target: Peroxisome proliferator-activated receptor gamma/Nuclear receptor coactivator 3 (Homo sapiens, UniProt P37231); type: functional;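 further: agonist potency for raising coactivator recruitment to the receptor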
# [11] = biological target: Procathepsin L (Homo sapiens, UniProt P07711)
# [12] = biological target: Aspartyl aminopeptidase (Plasmodium falciparum 3D7, UniProt Q8I2J3)
# [13] = biological target: Serine/threonine-protein phosphatase (Homo sapiens, UniProt Q9BPW0); assay: Counterscreen for inhibitors of PP1: fluorescence-based biochemical high throughput dose response assay to identify inhibitors of Protein Phosphatase 5 (PP5). [Related pubchem assays: 2034 (Summary (PP5 inhibitors)), 1987 (PP5 inhibitors in singlate), 2235 (PP1 inhibitors in singlate)]
# [14] = biological target: T3, Streptokinase A (Streptococcus pyogenes serotype M1, UniProt P10520); assay: S. pyogenes streptokinase expression inhibitors, potency, dose response, plasminogen activation absorbance, OD405 (AID 1914); type: functional, Streptococcus pyogenes M1 GAS;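 further: secreted streptokinase activity via plasminogen activation per viability signal from cell pellet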
# T3 sequence (P10520 whole entry): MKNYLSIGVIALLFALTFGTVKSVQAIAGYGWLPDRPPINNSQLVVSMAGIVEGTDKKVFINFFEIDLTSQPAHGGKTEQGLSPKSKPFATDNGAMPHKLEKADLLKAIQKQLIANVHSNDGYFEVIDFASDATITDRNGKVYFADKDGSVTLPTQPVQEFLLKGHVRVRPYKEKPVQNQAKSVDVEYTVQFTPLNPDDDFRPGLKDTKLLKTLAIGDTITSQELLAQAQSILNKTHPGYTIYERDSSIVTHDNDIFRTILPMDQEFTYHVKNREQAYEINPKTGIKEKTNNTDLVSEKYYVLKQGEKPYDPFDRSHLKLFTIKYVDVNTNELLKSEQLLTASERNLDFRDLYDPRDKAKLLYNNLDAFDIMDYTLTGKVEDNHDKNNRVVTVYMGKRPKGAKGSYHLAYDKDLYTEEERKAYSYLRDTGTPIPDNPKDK
# [15] = system: Streptococcus; assay: Group A Streptococcus viability loss, dose response, counter-screen for streptokinase expression inhibitor project, luminescence, BacTiterGlo (AID 1915); type: functional, organism-based;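 further: potency for reduction of bacterial viability or growth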
# [16] = growth suppression of beta-catenin-knockout colon cells, dose response, cell-based, HCT116, human colon tumor (AID 1045); type: functional;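 further: HCT116 colon tumor cells with beta catenin knocked out; cells exposed to compound for 60 hours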
# [17] = growth suppression of PTEN-null colon cells, dose response, cell-based, HCT116 PTEN knockout (AID 1047); type: functional;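 further: HCT116 colon tumor cells with PTEN knocked out; cells exposed to compound for 60 hours before readout; potency for loss of cell viability measured by luminescence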
# [18] = system: Streptococcus sp. 'group A'; assay: growth inhibition of control SK(-) GAS strain, dose response, counter-screen for streptokinase expression inhibitor project, luminescence, kanamycin, BacTiterGlo, confirmation (AID 1900); type: functional, organism-based
# [19] = biological target: Serine/threonine-protein phosphatase PP1-alpha catalytic subunit (Homo sapiens, UniProt P62136); assay: PP1 phosphatase inhibitors, dose response, biochemical, fluorescence (AID 2403);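 further: phosphatase turnover of OMFP into fluorescent 3-O-methylfluorescein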
# [20] = inhibitors of Bluetongue virus cytopathic effect, confirmation, arbovirus, BSR cells (AID 1250); type: functional;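 further: protection from viral cytopathic effect measured as cell viability by ATP luminescence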
# [21] = HEp-2 cell cytotoxicity, dose response, cytotoxicity control for RSV inhibitor project, HTS (AID 2410); type: functional; settings: human respiratory syncytial virus
# [22] = M. tuberculosis H37Rv growth inhibitors, H37Rv strain (AID 1626); type: functional
# [23] = biological target: Neuropeptide Y receptor type 2 (Homo sapiens, UniProt P49146); type: functional, cell-based;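 further: HEK293 cells expressing the receptor and a CNG channel; stimulus was NPY near EC95 followed by isoproterenol to raise cAMP; antagonist potency measured as restoring cAMP signal that NPY suppresses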
# [24] = biological target: Neuropeptide Y receptor type 1 (Homo sapiens, UniProt P25929); type: functional;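 further: HEK293 cells with a CNG channel challenged with NPY then isoproterenol; potency as antagonist that reverses NPY suppression of cAMP signal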
# [25] = biological target: T4, Oxysterols receptor LXR-beta (Homo sapiens, UniProt P55055); assay: LXR agonists, Gal4 luciferase reporter, dose response, counter-screen for ssDAF-12 agonist project, cell-based, luminescence, HEK293, S. stercoralis campaign (AID 720737); type: functional; settings: read-out: IC50 (the source's name)
# T4 sequence (P55055 whole entry): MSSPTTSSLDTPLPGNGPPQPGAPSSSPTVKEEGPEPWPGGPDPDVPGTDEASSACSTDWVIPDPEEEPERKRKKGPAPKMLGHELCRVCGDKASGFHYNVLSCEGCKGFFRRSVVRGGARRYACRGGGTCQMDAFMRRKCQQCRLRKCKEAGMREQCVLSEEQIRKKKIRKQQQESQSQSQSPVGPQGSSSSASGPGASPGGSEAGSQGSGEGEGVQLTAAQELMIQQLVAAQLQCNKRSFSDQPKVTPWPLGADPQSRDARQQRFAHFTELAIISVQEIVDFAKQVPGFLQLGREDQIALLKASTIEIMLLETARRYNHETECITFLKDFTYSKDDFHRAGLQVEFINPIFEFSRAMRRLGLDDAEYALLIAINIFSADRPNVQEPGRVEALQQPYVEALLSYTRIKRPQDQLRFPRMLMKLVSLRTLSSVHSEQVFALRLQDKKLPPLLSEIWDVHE
# [26] = biological target: Wee1-like protein kinase (Homo sapiens, UniProt P30291); assay: Dose Response Cell-based Assay for Inhibitors of Wee1 Degradation. [Related pubchem assays: 1410, 1321 ]; type: functional
# [27] = biological target: T4, Oxysterols receptor LXR-beta; type: functional, cell-based
# [28] = Luminescence-based cell-based high throughput dose response assay to identify activators of the DAF-12 from the parasite S. stercoralis (ssDAF-12).; type: functional
# [29] = biological target: G2/mitotic-specific cyclin-B1 (Homo sapiens, UniProt P14635); assay: Counterscreen assay for inhibitors of Wee1 degradation: dose response cell-based assay to identify inhibitors of cyclin B degradation. [Related pubchem assays: 1410, 1321 ]; type: functional
# [30] = cells
# [31] = system: Vero; assay: cytotoxicity of synthesized analogs in Vero 76, SAR follow-up, cytotoxicity control for West Nile virus antiviral project, Vero 76 cells (AID 2414); type: functional; settings: Chlorocebus sabaeus
# [32] = A Cell Based Assay for the Identification of Probe candidate Compounds with Anti- Venezuelan Equine Encephalitis virus. [Related pubchem assays: 2409, 2419, 1621, 2238, 2405, 2024, 2065, 2402, 2414, 1635, 1650, 2244 ]; type: functional
# [33] = system: Vero; assay: Vero E6 cell cytotoxicity, SAR follow-up, cytotoxicity control for West Nile virus antiviral project, synthesized analogs (AID 2244); type: functional; settings: Chlorocebus sabaeus
# [34] = system: Vero; assay: cytotoxicity of synthesized analogs in Vero cells, SAR follow-up, cytotoxicity control for West Nile virus antiviral project, cell-based, set II (AID 2402); type: functional; settings: Chlorocebus sabaeus
# Sequence of Serine/threonine-protein phosphatase PP1-alpha catalytic subunit (P62136 whole entry): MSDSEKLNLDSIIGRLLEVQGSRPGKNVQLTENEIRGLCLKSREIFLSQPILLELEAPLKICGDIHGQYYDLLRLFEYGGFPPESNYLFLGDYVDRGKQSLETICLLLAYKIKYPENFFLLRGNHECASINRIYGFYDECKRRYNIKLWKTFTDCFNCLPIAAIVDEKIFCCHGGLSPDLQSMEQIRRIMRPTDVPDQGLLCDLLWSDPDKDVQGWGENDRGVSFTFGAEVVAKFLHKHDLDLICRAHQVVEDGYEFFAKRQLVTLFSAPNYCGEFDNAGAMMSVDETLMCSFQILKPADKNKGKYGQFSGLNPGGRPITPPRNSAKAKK
# Sequence of Cytochrome P450 2D6 (P10635 whole entry): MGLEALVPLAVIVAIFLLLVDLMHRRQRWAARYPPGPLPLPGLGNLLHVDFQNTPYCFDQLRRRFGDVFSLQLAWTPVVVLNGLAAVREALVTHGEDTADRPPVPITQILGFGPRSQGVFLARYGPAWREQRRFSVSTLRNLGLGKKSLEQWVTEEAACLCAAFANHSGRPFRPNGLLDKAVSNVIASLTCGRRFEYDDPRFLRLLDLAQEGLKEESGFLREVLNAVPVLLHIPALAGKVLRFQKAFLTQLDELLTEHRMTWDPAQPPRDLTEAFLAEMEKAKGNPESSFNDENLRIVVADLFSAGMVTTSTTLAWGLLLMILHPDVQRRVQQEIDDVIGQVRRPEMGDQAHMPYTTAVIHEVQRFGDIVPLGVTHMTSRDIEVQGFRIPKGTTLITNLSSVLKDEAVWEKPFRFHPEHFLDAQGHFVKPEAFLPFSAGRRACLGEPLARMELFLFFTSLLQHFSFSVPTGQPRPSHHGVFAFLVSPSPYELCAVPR
# Sequence of Wee1-like protein kinase (P30291 whole entry): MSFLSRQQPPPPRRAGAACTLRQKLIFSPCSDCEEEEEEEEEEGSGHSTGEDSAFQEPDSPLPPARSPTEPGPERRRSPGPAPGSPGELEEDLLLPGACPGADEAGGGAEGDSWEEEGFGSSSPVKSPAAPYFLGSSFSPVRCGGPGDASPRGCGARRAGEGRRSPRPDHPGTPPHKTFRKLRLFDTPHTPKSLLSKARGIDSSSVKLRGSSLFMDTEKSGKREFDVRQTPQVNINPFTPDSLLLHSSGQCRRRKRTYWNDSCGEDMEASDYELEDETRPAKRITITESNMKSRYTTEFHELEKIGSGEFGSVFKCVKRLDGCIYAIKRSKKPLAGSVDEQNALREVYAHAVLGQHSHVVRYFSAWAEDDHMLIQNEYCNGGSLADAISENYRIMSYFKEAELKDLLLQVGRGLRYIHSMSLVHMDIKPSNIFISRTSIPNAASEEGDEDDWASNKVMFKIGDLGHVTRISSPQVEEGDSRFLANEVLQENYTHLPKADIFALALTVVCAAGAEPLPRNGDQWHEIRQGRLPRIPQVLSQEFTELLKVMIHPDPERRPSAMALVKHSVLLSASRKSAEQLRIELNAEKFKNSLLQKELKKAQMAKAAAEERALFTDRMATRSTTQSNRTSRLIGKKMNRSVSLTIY
# Sequence of Luciferin 4-monooxygenase (P08659 whole entry): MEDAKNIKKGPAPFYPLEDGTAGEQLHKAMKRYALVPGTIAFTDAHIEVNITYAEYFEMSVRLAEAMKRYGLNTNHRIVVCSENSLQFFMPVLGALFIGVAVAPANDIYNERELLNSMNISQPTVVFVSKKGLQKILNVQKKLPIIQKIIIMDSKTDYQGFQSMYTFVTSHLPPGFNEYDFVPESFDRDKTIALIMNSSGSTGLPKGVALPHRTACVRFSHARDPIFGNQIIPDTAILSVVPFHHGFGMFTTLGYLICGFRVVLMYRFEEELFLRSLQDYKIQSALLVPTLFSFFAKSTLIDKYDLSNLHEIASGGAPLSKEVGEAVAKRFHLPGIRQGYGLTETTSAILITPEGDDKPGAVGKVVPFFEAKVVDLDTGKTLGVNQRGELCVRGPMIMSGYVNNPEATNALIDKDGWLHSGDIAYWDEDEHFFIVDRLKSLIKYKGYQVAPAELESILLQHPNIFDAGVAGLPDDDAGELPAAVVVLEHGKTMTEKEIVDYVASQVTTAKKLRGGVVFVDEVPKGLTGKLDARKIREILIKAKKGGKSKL
# Sequence of Cytochrome P450 3A4 (P08684 whole entry): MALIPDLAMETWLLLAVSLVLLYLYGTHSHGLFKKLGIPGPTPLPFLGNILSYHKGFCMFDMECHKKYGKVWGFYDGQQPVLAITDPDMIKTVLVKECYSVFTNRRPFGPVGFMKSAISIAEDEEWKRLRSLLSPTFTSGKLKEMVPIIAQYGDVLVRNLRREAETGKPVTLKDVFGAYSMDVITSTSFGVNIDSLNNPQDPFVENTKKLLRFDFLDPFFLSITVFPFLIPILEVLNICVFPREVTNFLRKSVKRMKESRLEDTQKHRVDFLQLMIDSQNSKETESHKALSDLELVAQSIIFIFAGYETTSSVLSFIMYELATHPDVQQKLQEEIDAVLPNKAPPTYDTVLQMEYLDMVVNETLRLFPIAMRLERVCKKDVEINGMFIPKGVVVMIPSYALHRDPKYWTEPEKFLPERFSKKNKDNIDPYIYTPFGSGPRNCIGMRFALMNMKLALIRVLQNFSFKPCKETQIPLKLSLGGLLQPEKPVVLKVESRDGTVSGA
# Sequence of G2/mitotic-specific cyclin-B1 (P14635 whole entry): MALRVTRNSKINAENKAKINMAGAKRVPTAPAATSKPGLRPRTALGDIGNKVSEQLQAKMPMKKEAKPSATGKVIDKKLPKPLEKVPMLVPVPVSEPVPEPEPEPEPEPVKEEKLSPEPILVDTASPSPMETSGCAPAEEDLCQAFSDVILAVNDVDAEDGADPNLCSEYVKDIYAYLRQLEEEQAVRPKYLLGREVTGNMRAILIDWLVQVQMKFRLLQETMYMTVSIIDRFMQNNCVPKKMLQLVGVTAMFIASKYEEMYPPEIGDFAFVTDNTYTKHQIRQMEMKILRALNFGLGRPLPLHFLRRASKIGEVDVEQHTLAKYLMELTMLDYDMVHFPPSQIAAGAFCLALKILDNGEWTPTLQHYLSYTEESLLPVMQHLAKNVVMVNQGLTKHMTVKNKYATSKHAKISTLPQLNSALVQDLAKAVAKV
# Sequence of Aspartyl aminopeptidase (Q8I2J3 whole entry): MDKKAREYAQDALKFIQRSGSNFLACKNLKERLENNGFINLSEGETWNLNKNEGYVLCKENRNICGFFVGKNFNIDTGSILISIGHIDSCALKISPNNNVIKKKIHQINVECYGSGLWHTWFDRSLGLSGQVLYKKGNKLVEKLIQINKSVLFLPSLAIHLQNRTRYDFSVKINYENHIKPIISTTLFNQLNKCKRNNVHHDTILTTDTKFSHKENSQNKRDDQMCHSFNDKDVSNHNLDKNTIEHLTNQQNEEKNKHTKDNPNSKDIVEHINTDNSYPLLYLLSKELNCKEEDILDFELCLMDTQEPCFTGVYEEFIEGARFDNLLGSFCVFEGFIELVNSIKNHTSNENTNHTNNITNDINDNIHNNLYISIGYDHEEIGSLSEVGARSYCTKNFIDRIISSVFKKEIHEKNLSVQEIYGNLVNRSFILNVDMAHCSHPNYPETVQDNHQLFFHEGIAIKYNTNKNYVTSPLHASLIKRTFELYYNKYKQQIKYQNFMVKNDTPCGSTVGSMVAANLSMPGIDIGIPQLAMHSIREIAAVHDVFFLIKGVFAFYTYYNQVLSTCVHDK
# Sequence of Procathepsin L (P07711 whole entry): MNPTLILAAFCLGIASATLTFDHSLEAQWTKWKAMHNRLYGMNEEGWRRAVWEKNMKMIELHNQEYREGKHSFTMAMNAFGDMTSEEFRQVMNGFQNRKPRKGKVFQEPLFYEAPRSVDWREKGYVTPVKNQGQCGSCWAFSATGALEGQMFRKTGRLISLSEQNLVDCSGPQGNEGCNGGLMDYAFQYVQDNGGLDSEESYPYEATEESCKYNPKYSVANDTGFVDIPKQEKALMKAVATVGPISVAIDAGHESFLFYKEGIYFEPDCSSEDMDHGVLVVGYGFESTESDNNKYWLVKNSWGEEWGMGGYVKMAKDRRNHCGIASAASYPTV
# Sequence of Neuropeptide Y receptor type 1 (P25929 whole entry, the tested form may be a part): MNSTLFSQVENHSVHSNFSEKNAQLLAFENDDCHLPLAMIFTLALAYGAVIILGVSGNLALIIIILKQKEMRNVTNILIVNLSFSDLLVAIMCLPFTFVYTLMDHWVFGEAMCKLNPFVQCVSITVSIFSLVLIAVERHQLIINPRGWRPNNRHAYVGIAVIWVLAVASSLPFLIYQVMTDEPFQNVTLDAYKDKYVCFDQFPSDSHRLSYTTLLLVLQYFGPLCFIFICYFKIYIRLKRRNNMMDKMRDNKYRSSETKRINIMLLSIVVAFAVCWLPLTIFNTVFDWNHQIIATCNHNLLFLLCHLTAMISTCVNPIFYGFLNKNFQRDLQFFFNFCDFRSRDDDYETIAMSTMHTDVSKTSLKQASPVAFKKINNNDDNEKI
# Sequence of Neuropeptide Y receptor type 2 (P49146 whole entry): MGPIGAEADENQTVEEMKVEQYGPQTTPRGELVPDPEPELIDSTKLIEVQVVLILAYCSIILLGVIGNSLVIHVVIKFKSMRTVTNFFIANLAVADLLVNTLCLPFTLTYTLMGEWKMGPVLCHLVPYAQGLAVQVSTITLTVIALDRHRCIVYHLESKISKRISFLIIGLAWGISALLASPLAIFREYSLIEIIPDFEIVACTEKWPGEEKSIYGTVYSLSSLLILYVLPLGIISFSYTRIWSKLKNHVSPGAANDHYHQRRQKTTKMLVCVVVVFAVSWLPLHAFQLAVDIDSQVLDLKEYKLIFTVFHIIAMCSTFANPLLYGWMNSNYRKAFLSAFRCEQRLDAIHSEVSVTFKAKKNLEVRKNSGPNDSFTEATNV
structure (smiles),measurement,setting,value
Cn1cc(Cl)c(C(=O)NNC(=S)NC2CCCCC2)n1,EC50,[1],41 µM (active)
Cc1nc(/N=N\c2ccc(C(=O)O)cc2)c(COP(=O)(O)O)c(C=O)c1O,AC50,[2],39.8 µM (inconclusive)
same,AC50,[3],10 µM (inconclusive)
COc1ccc(/C=N/NC(=O)c2n[nH]c3c2CCC3)cc1O,EC50,[4],> 8 µM (inactive)
same,EC50,[5],> 8 µM (not active)
same,EC50,[6],4.21 µM (not active)
O=C(Cn1ncc2c(=O)oc3ccccc3c21)Nc1nc2ccccc2s1,EC50,[7],6.23 µM (active)
Cc1cc(=O)[nH]c2c1c(C)nn2C1CCCC1,EC50,[8],> 79.4 µM (not active)
same,EC50,[9],> 79.4 µM (not active)
same,EC50,[10],> 79.4 µM (not active)
COc1ccc(Cl)cc1NC(=O)Nn1cnnc1,IC50,[11],> 59.6 µM (not active)
same,IC50,[12],832 nM (active)
COc1cnc(-c2ccccn2)nc1Sc1ccc(Cl)cc1,IC50,[13],> 67 µM (not active)
same,EC50,[14],> 150 µM (not active)
same,EC50,[15],15.3 µM (active)
same,EC50,[16],18.6 µM (active)
same,EC50,[17],21.6 µM (active)
same,EC50,[18],9.35 µM (active)
same,IC50,[19],6.47 µM (active)
COc1ccc(-c2nc(NC(=O)c3nnc(O)c4ccccc34)sc2C)cc1,IC50,[20],> 100 µM (active)
same,CC50,[21],40.5 µM (active)
O=C(COC(=O)/C=C/c1nc2ccccc2s1)Nc1cccc(Cl)c1Cl,IC50,[22],> 100 µM (active)
COc1ccccc1OCCCCN1CCN(C(c2ccccc2)c2ccccc2)CC1,IC50,[23],> 35 µM (not active)
same,IC50,[24],> 35 µM (not active)
CC(=O)Nc1ccc(/C=N/Nc2nc3ccccc3s2)cc1,EC50,[25],> 67.5 µM (inactive)
same,EC50,[26],> 49.7 µM (not active)
same,EC50,[27],> 67.5 µM (inactive)
same,IC50,[28],> 67.5 µM (inactive)
same,EC50,[29],> 49.7 µM (not active)
same,EC50,[30],> 67.5 µM (inactive)
COc1cccc(C(NC(=O)c2ccccc2)c2ccc3cccnc3c2O)c1 (centres undefined),CC50,[31],6.07 µM (active)
same,IC50,[32],5.63 µM (active)
same,CC50,[33],1.94 µM (active)
same,CC50,[34],2.2 µM (active)
